Test results as given in patent US9000175B2, “Bicyclic GPR119 modulators” (Lupin Limited, priority 2010, dated 2015).

What was measured:
[1] = biological target: T1, human GPR119 (Homo sapiens, UniProt Q8TDV5); assay: Cyclic AMP assay in stable cell line; type: cell-based; details: CHO-K1 cells stably transfected with human GPR119; cAMP levels (FRET, cAMP femto kit); 1 h at 37° C; read-out: EC50 Range
T1 construct: expressed in transfected cells
T1 sequence (Q8TDV5 1-335): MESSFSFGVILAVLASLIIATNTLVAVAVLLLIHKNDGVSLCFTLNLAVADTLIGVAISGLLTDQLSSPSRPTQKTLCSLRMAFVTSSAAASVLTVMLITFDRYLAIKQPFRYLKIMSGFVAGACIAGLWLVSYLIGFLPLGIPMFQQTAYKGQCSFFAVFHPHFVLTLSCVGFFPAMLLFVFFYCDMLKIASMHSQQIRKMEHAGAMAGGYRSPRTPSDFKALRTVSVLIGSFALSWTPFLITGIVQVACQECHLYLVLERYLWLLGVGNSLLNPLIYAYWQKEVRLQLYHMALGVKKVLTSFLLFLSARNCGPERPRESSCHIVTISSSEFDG
How it was run: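 Human GPR119 stably expressed in CHO-K1 cells, serum-starved 18-24 h, then exposed to compounds in serum-free Ham's F12 for 1 h at 37° C. cAMP measured by HTRF competition (665/620 nm ratio) against a cAMP standard curve; EC50 for half-maximal stimulation.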

[2] = system: C57 BL/6J mice; assay: Oral glucose tolerance test; type: in vivo; details: male C57 BL/6J mice fasted 16 h, 10 mg/kg oral gavage 30 min before glucose bolus 3 g/kg, 20-120 min; for % reduction in delta AUC at 10 mg/kg: blood glucose delta AUC; for % reduction in total AUC at 10 mg/kg: blood glucose total AUC
Protocol: Oral Glucose Tolerance Test:
9-10 weeks old male C57 BL/6J mice were maintained on a regular chow diet. The day of the experiment mice were fasted for 16 h and then randomized in to groups (n=7-8) based on blood glucose and bodyweight to receive vehicle (80% PEG400, 10% Tween80, 10% Ethanol) or test compounds (at 10 mg/kg). Vehicle or test compounds were delivered via oral gavage at 10 ml/kg volume. Thirty minutes later, the mice were dosed orally with a glucose bolus (3 g/kg) at 10 ml/kg volume. Blood glucose measurements were taken at 20, 40, 60 and 120 minutes after glucose administration by glucometer (CONTOUR TS, Bayer). Total AUC and Delta AUC were calculated by using graph pad prism (5.0).

EC50 [1]	SMILES	% reduction in delta AUC at 10 mg/kg [2]	% reduction in total AUC at 10 mg/kg [2]
< 50 nM	CCc1cnc(N2CCC(Oc3ccc(-n4ccc5cc(C(=O)NC)ccc54)nc3)CC2)nc1 [Example-63, 1-(5-((1-(5-Ethylpyrimidin-2-yl)piperidin-4-yl)oxy)pyridin-2-yl)-N-methyl-1H-indole-5-carboxamide]	28%	19%
< 50 nM	CCc1cnc(N2CCC(Oc3ccc(-n4ccc5cc(-n6cncn6)ccc54)nc3)CC2)nc1 [Example-190, 1-(5-((1-(5-Ethylpyrimidin-2-yl)piperidin-4-yl)oxy)pyridin-2-yl)-5-(1H-1,2,4-triazol-1-yl)-1H-indole]	–	–

The remaining lines, values behind:

SMILES	EC50 [1]	% reduction in delta AUC at 10 mg/kg [2]	% reduction in total AUC at 10 mg/kg [2]
CCOC(=O)Nc1ccc2c(ccn2-c2ccc(OC3CCN(c4nc(CC)no4)CC3)cn2)c1 [Example-142, Ethyl(1-(5-((1-(3-ethyl-1,2,4-oxadiazol-5-yl)piperidin-4-yl)oxy)pyridin-2-yl)-1H-indol-5-yl)carbamate]	–	35%	20%
CCOC(=O)N1CCC(Oc2ccc(-n3ccc4cc(S(C)(=O)=O)ccc43)nc2)CC1 [Example-185, Ethyl-4-((6-(5-(methylsulfonyl)-1H-indol-1-yl)pyridin-3-yl)oxy)-piperidine-1-carboxylate]	50 to 250 nM	–	–
CCOC(=O)N1CCC(Oc2ccc(-n3ccc4cc(-n5cnnn5)ccc43)nc2)CC1 [Example-187, Ethyl-4-((6-(5-(1H-tetrazol-1-yl)-1H-indol-1-yl)pyridin-3-yl)oxy)-piperidine-1-carboxylate]	< 50 nM	–	–
CCOC(=O)N1CCC(Oc2ccc(-n3ccc4cc(-n5cncn5)ccc43)nc2)CC1 [Example-192, Ethyl-4-((6-(5-(1H-1,2,4-triazol-1-yl)-1H-indol-1-yl)pyridin-3-yl)oxy) piperidine-1-carboxylate]	250 to 1000 nM	–	–
CS(=O)(=O)c1ccc2c(ccn2-c2ccc(OC3CCN(CC4(C(F)(F)F)CC4)CC3)cn2)c1 [Example-193, 5-(Methylsulfonyl)-1-(5-((1-((1-(trifluoromethyl)cyclopropyl)methyl)-piperidin-4-yl)oxy)pyridin-2-yl)-1H-indole]	< 50 nM	–	–
